Test results from ChEMBL document CHEMBL1250488, “Structural and functional basis of resistance to neuraminidase inhibitors of influenza B viruses” (J Med Chem, 2010).

Key:
[1] = Inhibition of Influenza B virus (B/Perth/211/2001) recombinant wild type neuraminidase expressed in Sf21 insect cells after 60 mins by MUNANA based assay
[2] = Inhibition of Influenza B virus (B/Perth/211/2001) wild type recombinant neuraminidase expressed in Sf21 insect cells preincubated for 30 mins measured after 60 mins by MUNANA based assay
[3] = Inhibition of Influenza B virus B/Gifu/11/2005 wild type neuraminidase expressed in Sf21 insect cells preincubated for 30 mins measured after 60 mins by MUNANA based assay
[4] = Inhibition of Influenza B virus B/Gifu/11/2005 wild type neuraminidase expressed in Sf21 insect cells after 60 mins by MUNANA based assay

| SMILES | IC50 [1] | IC50 [2] | Ki [2] | IC50 [3] | Ki [3] | Ki [1] | Ki [4] |
| --- | --- | --- | --- | --- | --- | --- | --- |
| O=C(O)C1(F)O[C@H]([C@H](O)[C@H](O)CO)[C@H](O)[C@@H](O)C1F (some centres not stated) | 37700 nM | – | – | – | – | – | – |
| CCC(CC)[C@H](NC(C)=O)[C@@H]1[C@H](O)[C@@H](C(=O)O)C[C@H]1NC(=N)N [PERAMIVIR ANHYDROUS] | – | 2.8 nM | 0.6 nM | 2.1 nM | 0.3 nM | 1.2 nM | 0.7 nM |
